Measurements from ChEMBL document CHEMBL4765316, “Discovery of novel resorcinol diphenyl ether-based PROTAC-like molecules as dual inhibitors and degraders of PD-L1” (Eur J Med Chem, 2020).

Biological target: Programmed cell death protein 1/Programmed cell death 1 ligand 1 (Homo sapiens, UniProt Q9NZQ7)
Assay: Inhibition of PD-1/PDL1 protein-protein interaction (unknown origin) by HTRF assay
Assay type: protein-complex assay
Settings: not given

Sequence of Programmed cell death protein 1/Programmed cell death 1 ligand 1 (Q15116 whole entry): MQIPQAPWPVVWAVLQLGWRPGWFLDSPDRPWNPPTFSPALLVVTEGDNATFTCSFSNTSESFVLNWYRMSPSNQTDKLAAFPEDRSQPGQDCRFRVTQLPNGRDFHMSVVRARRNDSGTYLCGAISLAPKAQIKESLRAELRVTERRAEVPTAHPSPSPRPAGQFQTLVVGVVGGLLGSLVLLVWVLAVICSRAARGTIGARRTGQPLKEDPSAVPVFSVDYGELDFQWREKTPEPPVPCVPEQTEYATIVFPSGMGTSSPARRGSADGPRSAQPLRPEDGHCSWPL
Sequence of Programmed cell death protein 1/Programmed cell death 1 ligand 1 (Q9NZQ7 whole entry): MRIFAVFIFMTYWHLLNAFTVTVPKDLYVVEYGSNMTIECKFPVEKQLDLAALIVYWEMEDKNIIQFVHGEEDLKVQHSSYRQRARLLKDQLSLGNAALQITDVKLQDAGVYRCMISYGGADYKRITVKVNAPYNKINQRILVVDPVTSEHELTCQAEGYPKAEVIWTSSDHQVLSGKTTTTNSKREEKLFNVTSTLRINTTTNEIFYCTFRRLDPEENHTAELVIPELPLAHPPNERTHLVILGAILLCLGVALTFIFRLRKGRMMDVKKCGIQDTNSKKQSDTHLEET

SMILES | IC50
Cc1c(COc2cc(OCc3cccc(C#N)c3)c(CN3CCCCC3C(=O)N3CCN(C(=O)CCCC(=O)Nc4cccc5c4C(=O)N(C4CCC(=O)NC4=O)C5=O)CC3)cc2Cl)cccc1-c1ccccc1 (stereo not given) | 0.0261 µM
Cc1c(COc2cc(OCc3cccc(C#N)c3)c(CN3CCCCC3C(=O)NCCNC(=O)CCCC(=O)Nc3ccc4c(c3)C(=O)N(C3CCC(=O)NC3=O)C4=O)cc2Cl)cccc1-c1ccccc1 (stereo not given) | 0.102 µM
Cc1c(COc2cc(OCc3cccc(C#N)c3)c(CN3CCCCC3C(=O)NCCCNC(=O)CCC(=O)Nc3cccc4c3C(=O)N(C3CCC(=O)NC3=O)C4=O)cc2Cl)cccc1-c1ccccc1 (stereo not given) | > 0.2 µM
Cc1c(COc2cc(OCc3cccc(C#N)c3)c(CN3CCCCC3C(=O)NCCNc3cccc4c3C(=O)N(C3CCC(=O)NC3=O)C4=O)cc2Cl)cccc1-c1ccccc1 (stereo not given) | 0.118 µM
Cc1c(COc2ccc(CN3CCCCC3C(=O)N3CCN(C(=O)CCCC(=O)Nc4cccc5c4C(=O)N(C4CCC(=O)NC4=O)C5=O)CC3)cc2Br)cccc1-c1ccccc1 (stereo not given) | > 0.2 µM
Cc1c(COc2cc(OCc3cccc(C#N)c3)c(CN3CCCCC3C(=O)NCCCCCCNc3cccc4c3C(=O)N(C3CCC(=O)NC3=O)C4=O)cc2Cl)cccc1-c1ccc2c(c1)OCCO2 (stereo not given) | > 0.2 µM
Cc1c(COc2cc(OCc3cccc(C#N)c3)c(CN3CCCCC3C(=O)N3CCN(C(=O)CCC(=O)Nc4cccc5c4C(=O)N(C4CCC(=O)NC4=O)C5=O)CC3)cc2Cl)cccc1-c1ccccc1 (stereo not given) | 0.0445 µM
Cc1c(COc2cc(OCc3cccc(C#N)c3)c(CN3CCCCC3C(=O)NCCCNc3cccc4c3C(=O)N(C3CCC(=O)NC3=O)C4=O)cc2Cl)cccc1-c1ccccc1 (stereo not given) | 0.0973 µM
Cc1c(COc2cc(OCc3cccc(C#N)c3)c(CN3CCCCC3C(=O)NCCCCNc3cccc4c3C(=O)N(C3CCC(=O)NC3=O)C4=O)cc2Cl)cccc1-c1ccc2c(c1)OCCO2 (stereo not given) | 0.103 µM
Cc1c(COc2cc(OCc3cccc(C#N)c3)c(CN3CCCCC3C(=O)N3CCN(C(=O)CCC(=O)Nc4cccc5c4C(=O)N(C4CCC(=O)NC4=O)C5=O)CC3)cc2Cl)cccc1-c1ccc2c(c1)OCCO2 (stereo not given) | 0.0252 µM
Cc1c(COc2cc(OCc3cccc(C#N)c3)c(CN3CCCCC3C(=O)NCCCNc3cccc4c3C(=O)N(C3CCC(=O)NC3=O)C4=O)cc2Cl)cccc1-c1ccc2c(c1)OCCO2 (stereo not given) | 0.135 µM
Cc1c(COc2cc(OCc3cccc(C#N)c3)c(CN3CCCCC3C(=O)NCCNC(=O)CCCC(=O)Nc3cccc4c3C(=O)N(C3CCC(=O)NC3=O)C4=O)cc2Cl)cccc1-c1ccccc1 (stereo not given) | 0.123 µM
Cc1c(COc2cc(OCc3cccc(C#N)c3)c(CN3CCCCC3C(=O)NCCNC(=O)CCC(=O)Nc3cccc4c3C(=O)N(C3CCC(=O)NC3=O)C4=O)cc2Cl)cccc1-c1ccc2c(c1)OCCO2 (stereo not given) | > 0.2 µM
Cc1c(COc2cc(OCc3cccc(C#N)c3)c(CN3CCCCC3C(=O)NCCCCCNc3cccc4c3C(=O)N(C3CCC(=O)NC3=O)C4=O)cc2Cl)cccc1-c1ccccc1 (stereo not given) | 0.171 µM
Cc1c(COc2ccc(CN3CCCCC3C(=O)NCCCCNc3cccc4c3C(=O)N(C3CCC(=O)NC3=O)C4=O)cc2Br)cccc1-c1ccccc1 (stereo not given) | 0.197 µM

Test system: A549
Assay: Antiproliferative activity against human A549 cells assessed as reduction in cell viability incubated for 48 hrs by CCK8 assay
Assay type: functional, cell-based
Settings: A549, 48 h

SMILES | IC50
Cc1c(COc2cc(OCc3cccc(C#N)c3)c(CN3CCCCC3C(=O)N3CCN(C(=O)CCCC(=O)Nc4cccc5c4C(=O)N(C4CCC(=O)NC4=O)C5=O)CC3)cc2Cl)cccc1-c1ccccc1 (stereo not given) | > 10 µM
Cc1c(COc2cc(OCc3cccc(C#N)c3)c(CN3CCCCC3C(=O)N3CCN(C(=O)CCC(=O)Nc4cccc5c4C(=O)N(C4CCC(=O)NC4=O)C5=O)CC3)cc2Cl)cccc1-c1ccccc1 (stereo not given) | > 10 µM
Cc1c(COc2cc(OCc3cccc(C#N)c3)c(CN3CCCCC3C(=O)NCCCCNc3cccc4c3C(=O)N(C3CCC(=O)NC3=O)C4=O)cc2Cl)cccc1-c1ccc2c(c1)OCCO2 (stereo not given) | > 10 µM
Cc1c(COc2cc(OCc3cccc(C#N)c3)c(CN3CCCCC3C(=O)N3CCN(C(=O)CCC(=O)Nc4cccc5c4C(=O)N(C4CCC(=O)NC4=O)C5=O)CC3)cc2Cl)cccc1-c1ccc2c(c1)OCCO2 (stereo not given) | 9.2 µM

Test system: NCI-H1299
Assay: Antiproliferative activity against human H1299 cells assessed as reduction in cell viability incubated for 48 hrs by CCK8 assay
Assay type: functional, cell-based
Settings: NCI-H1299, 48 h

SMILES | IC50
Cc1c(COc2cc(OCc3cccc(C#N)c3)c(CN3CCCCC3C(=O)N3CCN(C(=O)CCCC(=O)Nc4cccc5c4C(=O)N(C4CCC(=O)NC4=O)C5=O)CC3)cc2Cl)cccc1-c1ccccc1 (stereo not given) | > 10 µM
Cc1c(COc2cc(OCc3cccc(C#N)c3)c(CN3CCCCC3C(=O)N3CCN(C(=O)CCC(=O)Nc4cccc5c4C(=O)N(C4CCC(=O)NC4=O)C5=O)CC3)cc2Cl)cccc1-c1ccccc1 (stereo not given) | 9.7 µM
Cc1c(COc2cc(OCc3cccc(C#N)c3)c(CN3CCCCC3C(=O)NCCCCNc3cccc4c3C(=O)N(C3CCC(=O)NC3=O)C4=O)cc2Cl)cccc1-c1ccc2c(c1)OCCO2 (stereo not given) | > 10 µM
Cc1c(COc2cc(OCc3cccc(C#N)c3)c(CN3CCCCC3C(=O)N3CCN(C(=O)CCC(=O)Nc4cccc5c4C(=O)N(C4CCC(=O)NC4=O)C5=O)CC3)cc2Cl)cccc1-c1ccc2c(c1)OCCO2 (stereo not given) | > 10 µM

Test system: B16-F10
Assay: Antiproliferative activity against mouse B16-F10 cells assessed as reduction in cell viability incubated for 48 hrs by CCK8 assay
Assay type: functional, cell-based
Settings: B16-F10, 48 h

SMILES | IC50
Cc1c(COc2cc(OCc3cccc(C#N)c3)c(CN3CCCCC3C(=O)N3CCN(C(=O)CCCC(=O)Nc4cccc5c4C(=O)N(C4CCC(=O)NC4=O)C5=O)CC3)cc2Cl)cccc1-c1ccccc1 (stereo not given) | 10.8 µM
Cc1c(COc2cc(OCc3cccc(C#N)c3)c(CN3CCCCC3C(=O)N3CCN(C(=O)CCC(=O)Nc4cccc5c4C(=O)N(C4CCC(=O)NC4=O)C5=O)CC3)cc2Cl)cccc1-c1ccccc1 (stereo not given) | 11.4 µM
Cc1c(COc2cc(OCc3cccc(C#N)c3)c(CN3CCCCC3C(=O)NCCCCNc3cccc4c3C(=O)N(C3CCC(=O)NC3=O)C4=O)cc2Cl)cccc1-c1ccc2c(c1)OCCO2 (stereo not given) | > 10 µM
Cc1c(COc2cc(OCc3cccc(C#N)c3)c(CN3CCCCC3C(=O)N3CCN(C(=O)CCC(=O)Nc4cccc5c4C(=O)N(C4CCC(=O)NC4=O)C5=O)CC3)cc2Cl)cccc1-c1ccc2c(c1)OCCO2 (stereo not given) | 7.3 µM

Test system: MDA-MB-231
Assay: Antiproliferative activity against human MDA-MB-231 cells assessed as reduction in cell viability incubated for 48 hrs by CCK8 assay
Assay type: functional, cell-based
Settings: MDA-MB-231, 48 h

SMILES | IC50
Cc1c(COc2cc(OCc3cccc(C#N)c3)c(CN3CCCCC3C(=O)N3CCN(C(=O)CCCC(=O)Nc4cccc5c4C(=O)N(C4CCC(=O)NC4=O)C5=O)CC3)cc2Cl)cccc1-c1ccccc1 (stereo not given) | > 10 µM
Cc1c(COc2cc(OCc3cccc(C#N)c3)c(CN3CCCCC3C(=O)N3CCN(C(=O)CCC(=O)Nc4cccc5c4C(=O)N(C4CCC(=O)NC4=O)C5=O)CC3)cc2Cl)cccc1-c1ccccc1 (stereo not given) | > 10 µM
Cc1c(COc2cc(OCc3cccc(C#N)c3)c(CN3CCCCC3C(=O)NCCCCNc3cccc4c3C(=O)N(C3CCC(=O)NC3=O)C4=O)cc2Cl)cccc1-c1ccc2c(c1)OCCO2 (stereo not given) | > 10 µM
Cc1c(COc2cc(OCc3cccc(C#N)c3)c(CN3CCCCC3C(=O)N3CCN(C(=O)CCC(=O)Nc4cccc5c4C(=O)N(C4CCC(=O)NC4=O)C5=O)CC3)cc2Cl)cccc1-c1ccc2c(c1)OCCO2 (stereo not given) | > 10 µM

Test system: Jurkat
Assay: Antiproliferative activity against human jurkat cells assessed as reduction in cell viability incubated for 48 hrs by CCK8 assay
Assay type: functional, cell-based
Settings: not given

SMILES | IC50
Cc1c(COc2cc(OCc3cccc(C#N)c3)c(CN3CCCCC3C(=O)N3CCN(C(=O)CCCC(=O)Nc4cccc5c4C(=O)N(C4CCC(=O)NC4=O)C5=O)CC3)cc2Cl)cccc1-c1ccccc1 (stereo not given) | > 11.7 µM
Cc1c(COc2cc(OCc3cccc(C#N)c3)c(CN3CCCCC3C(=O)N3CCN(C(=O)CCC(=O)Nc4cccc5c4C(=O)N(C4CCC(=O)NC4=O)C5=O)CC3)cc2Cl)cccc1-c1ccccc1 (stereo not given) | > 10 µM
Cc1c(COc2cc(OCc3cccc(C#N)c3)c(CN3CCCCC3C(=O)NCCCCNc3cccc4c3C(=O)N(C3CCC(=O)NC3=O)C4=O)cc2Cl)cccc1-c1ccc2c(c1)OCCO2 (stereo not given) | > 10 µM
Cc1c(COc2cc(OCc3cccc(C#N)c3)c(CN3CCCCC3C(=O)N3CCN(C(=O)CCC(=O)Nc4cccc5c4C(=O)N(C4CCC(=O)NC4=O)C5=O)CC3)cc2Cl)cccc1-c1ccc2c(c1)OCCO2 (stereo not given) | > 10 µM
